Measured values as given in patent publication US9994556B2, “Triazole modified coumarin and biphenyl amide-based HSP90 inhibitors” (THE UNIVERSITY OF KANSAS, priority 2014, dated 2018).
“Also recorded” adds a separate entry of the source. Read-outs that look alike come from different tables or passages of the source.

Key:
[1] = tested on: SKBr3 cells; experiment: MTS/PMS cell viability assay, SKBr3; type: cell-based; details: Homo sapiens, SK-BR-3, 72 hr, mean ± standard deviation, read-out: IC50 SKBr3
Description: (§1) a) MTS/PMS Cell Viability Assay (SKBr3 and MCF-7 Cells)
(§2) Cells were maintained in a 1:1 mixture of Advanced DMEM/F12 (Gibco) supplemented with non-essential amino acids, L-glutamine (2 mM), streptomycin (500 μg/mL), penicillin (100 units/mL), and 10% FBS. Cells were grown to confluence in a humidified atmosphere (37° C., 5% CO2), seeded (2000/well, 100 μL) in 96-well plates, and allowed to attach overnight. Compound at varying concentrations in DMSO (1% DMSO final concentration) was added, and cells were returned to the incubator for 72 hr. At 72 hr, the number of viable cells was determined using an MTS/PMS cell proliferation kit (Promega) per the manufacturer's instructions. Cells incubated in 1% DMSO were used at 100% proliferation, and values were adjusted accordingly. IC50 values were calculated from separate experiments performed in triplicate using GraphPad Prism.

[2] = tested on: MCF-7 cells; experiment: MTS/PMS cell viability assay, MCF-7; type: cell-based; details: Homo sapiens, MCF7
Description: as §1, §2

[3] = tested on: MDA-MB-468LN cell line; experiment: Promega CellTiter-Glo (CTG) luminescent assay, MDA-MB-468LN; type: cell-based; details: Homo sapiens, 72 hr, mean ± standard deviation
Description: (§3) b) Promega CellTiter-Glo (CTG) Luminescent Assay
(§4) Antiproliferative activities against MDA-MB-468LN, MDA1986 and JMAR cell lines were performed with 384-well white plates with the Promega CellTiter-Glo (CTG) luminescent assay with 72 hr compound treatment. Data analysis was performed using GraphPad Prism. Selected data were further checked with MTS/PMS cell viability assay with 96-well plates, which correlated well with Promega CellTiter-Glo luminescent assay.

[4] = tested on: MDA1986 cell line; experiment: Promega CellTiter-Glo (CTG) luminescent assay, MDA1986; type: cell-based; details: 72 hr, mean ± standard deviation, read-out: IC50 MDA1986
Description: as §3, §4

[5] = tested on: JMAR cell line; experiment: Promega CellTiter-Glo (CTG) luminescent assay, JMAR; type: cell-based; details: 72 hr, mean ± standard deviation
Description: as §3, §4

[6] = tested on: PC3-MM2 cells; experiment: Sulforhodamine B assay, PC3-MM2; type: cell-based; details: Homo sapiens, PC3MM2, mean ± standard deviation
Description: (§5) c) Sulforhodamine B Assay
(§6) The sulforhodamine B assay is used to measure drug-induced cytotoxicity and cell proliferation for large-scale drug-screening applications. Its principle is based on the ability of the protein dye sulforhodamine B to bind electrostatically on pH dependent protein basic amino acid residues of trichloroacetic acid-fixed cells. The aim is to evaluate samples showing selective growth inhibition or cell killing of particular tumor cell lines.
(§7) The SRB assay is performed by treating cells using a 10 point dose-response curve. The cells are fixed with trichloroacetic acid solution and stained with sulforhodamine B dye. The stained cells are then solubilized with 10 mM Tris buffer and read for absorbance at 565 nm.
(§8) Percentage growth is calculated at each of the drug concentration levels using the absorbance raw data.
(§9) Percentage growth inhibition is calculated as: [(Ti−Tz)/(C−Tz)]×100 for concentrations for which Ti≥Tz. [(Ti−Tz)/(Tz)]×100 for concentrations for which Ti<Tz.
(§10) Ti=Absorbance of wells at a given drug concentration level.
(§11) Tz=Absorbance time zero wells
(§12) C=Absorbance of untreated wells (media and cells only)
(§13) After growth inhibition values have been calculated, the data is plotted on Graphpad Prism software. Data is entered and plotted on a sigmoidal dose-response curve using non-linear regression.

[7] = tested on: LNCaP cells; experiment: Sulforhodamine B assay, LNCaP; type: cell-based; details: Homo sapiens, mean ± standard deviation
Description: as §5, §6, §7, §8, §9, §10, §11, §12, §13

[8] = tested on: Hsp90 client proteins Her2, Akt, Raf-1 and CDK6; experiment: Western blot analyses of Hsp90 client protein degradation in MCF-7 cell lysates; type: cell-based, human; details: MCF-7 lysates, 24 h; L = 1/2 and H = 5 times the antiproliferative IC50
Description: MCF-7 cells were cultured as described above and treated with various concentrations of drug, Geldanamycin (GDA or G) in DMSO (1% DMSO final concentration), or vehicle (DMSO) for 24 hr. Cells were harvested in cold PBS and lysed in RIPA lysis buffer containing 1 mM PMSF, 2 mM sodium orthovanadate, and protease inhibitors on ice for 1 hr. Lysates were clarified at 14000 g for 10 min at 4° C. Protein concentrations were determined using the Pierce BCA protein assay kit per the manufacturer's instructions. Equal amounts of protein (15 μg) were electrophoresed under reducing conditions, transferred to a PVDF membrane, and immunoblotted with the corresponding specific antibodies. Membranes were incubated with an appropriate horseradish peroxidase-labeled secondary antibody, developed with a chemiluminescent substrate, and visualized.

[9] = Table 1 coumarin-based triazoles, at least two experiments in triplicate
[10] = Table 1 coumarin-based triazoles, 72 hr, mean ± standard deviation, read-out: IC50 MCF-7
[11] = Table 1 coumarin-based triazoles
[12] = Table 2 biphenyl triazole analogues
[13] = Table 2 biphenyl triazole analogues, 72 hr, mean ± standard deviation, read-out: IC50 MCF-7

| SMILES | IC50 [1, 9] [nM] | IC50 [2, 10] [nM] | IC50 [3, 11] [nM] | IC50 [6, 11] [nM] | IC50 [7, 11] [nM] | IC50 [1, 12] [nM] | IC50 [2, 13] [nM] | IC50 ([2]; read-out: IC50 against MCF-7 cell line) [nM] | IC50 [3, 12] [nM] | IC50 [6, 12] [nM] | IC50 [7, 12] [nM] | IC50 [4, 11] [nM] | IC50 [5, 11] [nM] | Hsp90 client proteins Her2, Akt and Raf-1 (Western blot) [8] | IC50 [4, 12] [nM] | IC50 [5, 12] [nM] |
| --- | --- | --- | --- | --- | --- | --- | --- | --- | --- | --- | --- | --- | --- | --- | --- | --- |
| Cc1c(OC2CCN(C)CC2)ccc2cc(NC(=O)c3cn(-c4cccc(Cl)c4)nn3)c(=O)oc12 [4f, 1-(3-Chlorophenyl)-N-(8-methyl-7-((1-methylpiperidin-4-yl)oxy)-2-oxo-2H-chromen-3-yl)-1H-1,2,3-triazole-4-carboxamide] | 710 ± 140 | 1140 ± 180 | 4600 | 3900 ± 5110 | 13300 ± 11900 |  |  |  |  |  |  | 6400 | 6400 | degraded |  |  |
| COc1cccc(Cn2cc(C(=O)Nc3cc4ccc(OC5CCN(C)CC5)c(C)c4oc3=O)nn2)c1 [4o, 1-(3-Methoxybenzyl)-N-(8-methyl-7-((1-methylpiperidin-4-yl)oxy)-2-oxo-2H-chromen-3-yl)-1H-1,2,3-triazole-4-carboxamide] | 1150 ± 190 | 1610 ± 60 | 2690 ± 1330 | 7200 ± 150 | 3490 ± 300 |  |  |  |  |  |  | 1340 ± 310 | 1490 ± 310 | degraded |  |  |
| Cc1c(OC2CCN(C)CC2)ccc2cc(NC(=O)c3cn(CC4CCCCC4)nn3)c(=O)oc12 [4q, 1-(Cyclohexylmethyl)-N-(8-methyl-7-((1-methylpiperidin-4-yl)oxy)-2-oxo-2H-chromen-3-yl)-1H-1,2,3-triazole-4-carboxamide] | 610 | 1290 ± 160 | 990 ± 240 | 3130 ± 140 | 1200 ± 60 |  |  |  |  |  |  | 240 ± 320 | 300 ± 260 | degraded |  |  |
| COc1ccc(Cn2cc(C(=O)Nc3ccc(-c4ccc(OC5CCN(C)CC5)cc4)cc3)nn2)cc1 [5g, 1-(4-Methoxybenzyl)-N-(4′-((1-methylpiperidin-4-yl)oxy)-[1,1′-biphenyl]-4-yl)-1H-1,2,3-triazole-4-carboxamide] |  |  |  |  |  | 160 ± 20 | 270 ± 60 | 270 | 170 | 440 ± 190 | 240 ± 70 |  |  | decreased; also recorded: Clear degradation | 480 ± 90 | 610 ± 90 |
| CN1CCC(Oc2ccc(-c3ccc(NC(=O)c4cn(Cc5ccc(C(C)(C)C)cc5)nn4)cc3)cc2)CC1 [5h, 1-(4-tert-Butylbenzyl)-N-(4′-((1-methylpiperidin-4-yl)oxy)-[1,1′-biphenyl]-4-yl)-1H-1,2,3-triazole-4-carboxamide] |  |  |  |  |  | 3720 ± 680 | 10500 ± 400 |  | 2610 ± 760 | > 100000 | 1010 ± 1390 |  |  |  | 2340 ± 1810 | 3490 ± 2050 |
| CN1CCC(Oc2ccc(-c3ccc(NC(=O)c4cn(Cc5ccc([N+](=O)[O-])cc5)nn4)cc3)cc2)CC1 [5i, 1-(4-Nitrobenzyl)-N-(4′-((1-methylpiperidin-4-yl)oxy)-[1,1′-biphenyl]-4-yl)-1H-1,2,3-triazole-4-carboxamide] |  |  |  |  |  | 450 ± 40 | 550 ± 10 |  | 560 ± 250 | 1030 ± 160 | 600 ± 340 |  |  |  | 190 ± 170 | 210 ± 350 |

Further lines, with some results ahead:

| IC50 [1, 9] [nM] | IC50 [2, 10] [nM] | IC50 [3, 11] [nM] | IC50 [6, 11] [nM] | IC50 [7, 11] [nM] | IC50 [1, 12] [nM] | IC50 [2, 13] [nM] | IC50 ([2]; read-out: IC50 against MCF-7 cell line) [nM] | IC50 [3, 12] [nM] | IC50 [6, 12] [nM] | IC50 [7, 12] [nM] | SMILES | IC50 [4, 11] [nM] | IC50 [5, 11] [nM] | Hsp90 client proteins Her2, Akt and Raf-1 (Western blot) [8] | IC50 [4, 12] [nM] | IC50 [5, 12] [nM] |
| --- | --- | --- | --- | --- | --- | --- | --- | --- | --- | --- | --- | --- | --- | --- | --- | --- |
|  |  |  |  |  | 720 ± 180 | 1040 ± 80 |  | 1090 ± 230 | 2810 ± 1820 | 1640 ± 970 | CN1CCC(Oc2ccc(-c3ccc(NC(=O)c4cn(Cc5ccc(F)cc5)nn4)cc3)cc2)CC1 [5j, 1-(4-Fluorobenzyl)-N-(4′-((1-methylpiperidin-4-yl)oxy)-[1,1′-biphenyl]-4-yl)-1H-1,2,3-triazole-4-carboxamide] |  |  |  | 930 ± 340 | 1390 ± 520 |
|  |  |  |  |  | 390 ± 10 | 340 ± 20 |  | 170 ± 20 | 350 ± 140 | 120 ± 100 | CN1CCC(Oc2ccc(-c3ccc(NC(=O)c4cn(Cc5cccc(Cl)c5)nn4)cc3)cc2)CC1 [5k, 1-(3-Chlorobenzyl)-N-(4′-((1-methylpiperidin-4-yl)oxy)-[1,1′-biphenyl]-4-yl)-1H-1,2,3-triazole-4-carboxamide] |  |  |  | 170 ± 120 | 270 ± 40 |
|  |  |  |  |  | 320 ± 20 | 160 ± 20 |  | 190 ± 50 | 550 ± 370 | 160 | COc1cccc(Cn2cc(C(=O)Nc3ccc(-c4ccc(OC5CCN(C)CC5)cc4)cc3)nn2)c1 [5l, 1-(3-Methoxybenzyl)-N-(4′-((1-methylpiperidin-4-yl)oxy)-[1,1′-biphenyl]-4-yl)-1H-1,2,3-triazole-4-carboxamide] |  |  |  | 280 ± 90 | 210 ± 120 |
|  |  |  |  |  | 340 ± 40 | 380 ± 30 |  | 220 ± 30 | 1040 ± 510 | 610 ± 340 | CN1CCC(Oc2ccc(-c3ccc(NC(=O)c4cn(Cc5ccccc5Cl)nn4)cc3)cc2)CC1 [5m, 1-(2-Chlorobenzyl)-N-(4′-((1-methylpiperidin-4-yl)oxy)-[1,1′-biphenyl]-4-yl)-1H-1,2,3-triazole-4-carboxamide] |  |  |  | 810 ± 50 | 650 |
|  |  |  |  |  | 160 ± 10 | 200 ± 50 |  | 150 ± 20 | 350 ± 120 | 50 ± 40 | Cc1ccc(Cn2cc(C(=O)Nc3ccc(-c4ccc(OC5CCN(C)CC5)cc4)cc3)nn2)c(Cl)c1 [5n, 1-(2-Chloro-4-methylbenzyl)-N-(4′-((1-methylpiperidin-4-yl)oxy)-[1,1′-biphenyl]-4-yl)-1H-1,2,3-triazole-4-carboxamide] |  |  |  | 150 ± 60 | 430 ± 250 |
|  |  |  |  |  | 200 ± 20 | 310 ± 40 |  | 240 ± 60 | 5120 ± 6540 | 480 ± 680 | CN1CCC(Oc2ccc(-c3ccc(NC(=O)c4cn(CC5CCCCC5)nn4)cc3)cc2)CC1 [5o, 1-(Cyclohexylmethyl)-N-(4′-((1-methylpiperidin-4-yl)oxy)-[1,1′-biphenyl]-4-yl)-1H-1,2,3-triazole-4-carboxamide] |  |  |  | 380 ± 140 | 260 ± 450 |
